Assay results taken from US4740233A, “Substituted 1,2,4-triazolo[1,5-a]-pyrimidine-2-sulfonamides and compositions and methods of controlling undesired vegetation and suppressing the nitrification of ammonium nitrogen in soil” (The Dow Chemical Company, priority 1986, dated 1988).

Key:
rape [1] = experiment: Postemergent control of plant species; type: in vivo, Brassica napus; conditions: Brassica napus, post-emergence, 336 h, read-out: percent postemergent control
In short: (§1)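 Foliar spray, 2-4 leaf stage, greenhouse. Formulation: acetone solution (2x final conc.) mixed 1:1 with water + 0.1% surface active agent. ~2 wk hold, watered as needed. Readout = % growth reduction vs untreated same-species controls.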

soybean = experiment: Postemergent control of plant species; type: in vivo, Glycine max.; conditions: Glycine max, post-emergence, 336 h, read-out: percent postemergent control
In short: as §1

sugar beet [2] = experiment: Postemergent control of plant species; type: in vivo, Beta saccharifera; conditions: Beta vulgaris, post-emergence, 336 h, read-out: percent postemergent control
In short: as §1

jimsonweed = experiment: Postemergent control of plant species; type: in vivo, Datura stramonium; conditions: Datura stramonium, post-emergence, 336 h, read-out: percent postemergent control
In short: as §1

pigweed [3] = experiment: Postemergent control of plant species; type: in vivo, Amaranthus spp.; conditions: Amaranthus retroflexus, post-emergence, 336 h, read-out: percent postemergent control
In short: as §1

velvetleaf [4] = experiment: Postemergent control of plant species; type: in vivo, Abutilon theophrasti; conditions: Abutilon theophrasti, post-emergence, 336 h, read-out: percent postemergent control
In short: as §1

rice [5] = experiment: Postemergent control of plant species; type: in vivo, Oryza sativa; conditions: Oryza sativa, post-emergence, 336 h, read-out: percent postemergent control
In short: as §1

sorghum = experiment: Postemergent control of plant species; type: in vivo, Sorghum vulgare; conditions: Sorghum, post-emergence, 336 h, read-out: percent postemergent control
In short: as §1

barnyardgrass [6] = experiment: Postemergent control of plant species; type: in vivo, Echinochloa crusgalli; conditions: Echinochloa crus-galli, post-emergence, 336 h, read-out: percent postemergent control
In short: as §1

crabgrass [7] = experiment: Postemergent control of plant species; type: in vivo, Digitaria spp.; conditions: Digitaria sanguinalis, post-emergence, 336 h, read-out: percent postemergent control
In short: as §1

yellow foxtail = experiment: Postemergent control of plant species; type: in vivo, Setaria lutescens; conditions: Setaria, post-emergence, 336 h, read-out: percent postemergent control
In short: as §1

johnson grass [8] = experiment: Postemergent control of plant species; type: in vivo, Sorghum halepense; conditions: Sorghum halepense, post-emergence, 336 h, read-out: percent postemergent control
In short: as §1

wild oats = experiment: Postemergent control of plant species; type: in vivo, Avena fatua; conditions: Avena fatua, post-emergence, 336 h, read-out: percent postemergent control
In short: as §1

cotton = experiment: Preemergent control of plant species; type: in vivo, Gossypium spp.; conditions: Gossypium hirsutum, pre-emergence, 336 h; 0.25 lb/acre; read-out: percent preemergent control
In short: (§2)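 Growth reduction relative to untreated plants of the same species, assessed two weeks after treatment, defines the control value. Compositions, mostly aqueous emulsions, were deposited uniformly on seeded greenhouse soil beds at the tabulated rates, with a water-treated bed as reference.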

rape [9] = experiment: Preemergent control of plant species; type: in vivo, Brassica napus; conditions: Brassica napus, pre-emergence, 336 h; 0.25 lb/acre; read-out: percent preemergent control
In short: as §2

sugar beet [10] = experiment: Preemergent control of plant species; type: in vivo, Beta saccharifera; conditions: Beta vulgaris, pre-emergence, 336 h; 0.25 lb/acre; read-out: percent preemergent control
In short: as §2

annual morning glory = experiment: Preemergent control of plant species; type: in vivo, Ipomoea spp.; conditions: Ipomoea, pre-emergence, 336 h; 0.25 lb/acre; read-out: percent preemergent control
In short: as §2

velvetleaf [11] = experiment: Preemergent control of plant species; type: in vivo, Abutilon theophrasti; conditions: Abutilon theophrasti, pre-emergence, 336 h; 0.25 lb/acre; read-out: percent preemergent control
In short: as §2

rice [12] = experiment: Preemergent control of plant species; type: in vivo, Oryza sativa; conditions: Oryza sativa, pre-emergence, 336 h; 0.25 lb/acre; read-out: percent preemergent control
In short: as §2

wheat = experiment: Preemergent control of plant species; type: in vivo, Triticum aestivum; conditions: Triticum aestivum, pre-emergence, 336 h; 0.25 lb/acre; read-out: percent preemergent control
In short: as §2

barnyardgrass [13] = experiment: Preemergent control of plant species; type: in vivo, Echinochloa crusgalli; conditions: Echinochloa crus-galli, pre-emergence, 336 h; 0.25 lb/acre; read-out: percent preemergent control
In short: as §2

johnson grass [14] = experiment: Preemergent control of plant species; type: in vivo, Sorghum halepense; conditions: Sorghum halepense, pre-emergence, 336 h; 0.25 lb/acre; read-out: percent preemergent control
In short: as §2

cocklebur = experiment: Postemergent control of plant species; type: in vivo, Xanthium spp.; conditions: Xanthium strumarium, post-emergence, 336 h, read-out: percent postemergent control
In short: as §1

pigweed [15] = experiment: Preemergent control of plant species; type: in vivo, Amaranthus spp.; conditions: Amaranthus retroflexus, pre-emergence, 336 h; 0.25 lb/acre; read-out: percent preemergent control
In short: as §2

crabgrass [16] = experiment: Preemergent control of plant species; type: in vivo, Digitaria spp.; conditions: Digitaria sanguinalis, pre-emergence, 336 h; 0.25 lb/acre; read-out: percent preemergent control
In short: as §2

Structure (SMILES)	plant injury at 500 ppm (rape [1]) [%]	plant injury at 500 ppm (soybean) [%]	plant injury at 500 ppm (sugar beet [2]) [%]	pest or weed control at 500 ppm (jimsonweed) [%]	pest or weed control at 500 ppm (pigweed [3]) [%]	pest or weed control at 500 ppm (velvetleaf [4]) [%]	plant injury at 500 ppm (rice [5]) [%]	plant injury at 500 ppm (sorghum) [%]	pest or weed control at 500 ppm (barnyardgrass [6]) [%]	pest or weed control at 500 ppm (crabgrass [7]) [%]	pest or weed control at 500 ppm (yellow foxtail) [%]	pest or weed control at 500 ppm (johnson grass [8]) [%]	pest or weed control at 500 ppm (wild oats) [%]	plant injury at 280.212 g/ha (cotton) [%]	plant injury at 280.212 g/ha (rape [9]) [%]	plant injury at 280.212 g/ha (sugar beet [10]) [%]	pest or weed control at 280.212 g/ha (annual morning glory) [%]	pest or weed control at 280.212 g/ha (velvetleaf [11]) [%]	plant injury at 280.212 g/ha (rice [12]) [%]	plant injury at 280.212 g/ha (wheat) [%]	further results
CC(=O)N(c1c(Cl)cccc1Cl)S(=O)(=O)c1nc2nc(C)cc(C)n2n1 [Compound 262]	100	95	100	100	100	100	40	90	100	95	100	100	0	90	100	100	90	100	95	0	pest or weed control at 280.212 g/ha (barnyardgrass [13]): 90%; pest or weed control at 280.212 g/ha (johnson grass [14]): 60%
Cc1cc(C)n2nc(S(=O)(=O)Nc3ccccc3F)nc2n1 [Compound 8]	90	75	95	90	50	75	40	70	70	10	25	90	0	90	100	90	25	60	90	0	pest or weed control at 500 ppm (cocklebur): 90%; pest or weed control at 280.212 g/ha (pigweed [15]): 95%; pest or weed control at 280.212 g/ha (barnyardgrass [13]): 75%; pest or weed control at 280.212 g/ha (crabgrass [16]): 70%; pest or weed control at 280.212 g/ha (johnson grass [14]): 80%
Cc1cc(C)n2nc(S(=O)(=O)Nc3ccccc3[N+](=O)[O-])nc2n1 [Compound 12]	100	80	95	70	100	95	25	75	80	25	20	55	0	95	95	98	50	30	10	0	pest or weed control at 500 ppm (cocklebur): 100%; pest or weed control at 280.212 g/ha (pigweed [15]): 60%; pest or weed control at 280.212 g/ha (barnyardgrass [13]): 40%; pest or weed control at 280.212 g/ha (crabgrass [16]): 10%; pest or weed control at 280.212 g/ha (johnson grass [14]): 80%
Cc1cc(C)n2nc(S(=O)(=O)Nc3ccc(Cl)cc3C(F)(F)F)nc2n1 [Compound 34]	100	90	100	90	100	100	0	60	0	0	0	20	0	80	95	90	20	80	40	0	pest or weed control at 500 ppm (cocklebur): 100%; pest or weed control at 280.212 g/ha (pigweed [15]): 50%; pest or weed control at 280.212 g/ha (barnyardgrass [13]): 20%; pest or weed control at 280.212 g/ha (crabgrass [16]): 0%; pest or weed control at 280.212 g/ha (johnson grass [14]): 80%
COC(=O)c1cccc(F)c1NS(=O)(=O)c1nc2nc(C)cc(C)n2n1 [Compound 26]	100	95	100	100	100	100	80	90	100	90	90	100	0	95	98	100	95	95	100	0	pest or weed control at 500 ppm (cocklebur): 100%; pest or weed control at 280.212 g/ha (pigweed [15]): 100%; pest or weed control at 280.212 g/ha (barnyardgrass [13]): 98%; pest or weed control at 280.212 g/ha (crabgrass [16]): 100%; pest or weed control at 280.212 g/ha (johnson grass [14]): 98%
